Data from PMC7369637, “Inhibition of Resistance-Refractory P. falciparum Kinase PKG Delivers Prophylactic, Blood Stage, and Transmission-Blocking Antiplasmodial Activity” (Cell Chemical Biology, 2020).
Read-outs that look alike come from different tables or passages of the source.

Experiments:
[1] = target: T1, human protein extracts (Mixed: HEK-293/ K-562/ Placenta/ Hep G2) (Homo sapiens, UniProt P08240); experiment: Chemoproteomic profiling, MS/MS data for all quantified proteins (Table S1 E3); type: binding
T1 construct: endogenous in cells; host or cells: mixture of HEK-293, K-562, Hep G2 and placenta
Method: (§1) Human extracts were prepared as described ([Bantscheff et al., 2011]). Briefly, frozen cell pellets were homogenized in lysis buffer (50 mM Tris-HCl, 0.8% Igepal-CA630, 5% glycerol, 150 mM NaCl, 1.5 mM MgCl2, 25 mM sodium fluoride, 1 mM sodium vanadate, 1 mM DTT, pH 7.5). One cOmplete EDTA-free protease inhibitor tablet (Roche) was added per 25 ml. Samples were dispersed using a Dounce homogenizer, rotated for 30 min at 4°C, and centrifuged at 20,000g for 10 min at 4°C. Supernatants were then recentrifuged at 145,000g for 1 h at 4°C. Protein concentrations were determined using a Bradford assay (BioRad). Aliquots were snap frozen in liquid nitrogen and stored at −80°C.
(§2) Kinobeads were prepared by immobilizing Bis-(III) indolyl-maleimide, purvalanol B, staurosporine and CZC8004, and the analogs of PD173955, sunitinib and vandetanib on NHS-activated Sepharose 4 beads (Amersham) ([Bantscheff et al., 2007]). […] The chemoproteomic affinity-capturing experiments were performed as previously described ([Bantscheff et al., 2011]). Briefly, beads were washed and equilibrated in lysis buffer (50 mM Tris-HCl, pH 7.4, 0.4 % Igepal-CA630, 1.5 mM MgCl2, 5 % Glycerol, 150 mM NaCl, 25 mM NaF, 1 mM Na3VO4, 1 mM DTT, and one cOmplete EDTA-free protease inhibitor tablet (Roche) per 25 mL). […] 10 samples were measured in parallel (TMT 10-plex ([Werner et al., 2014])) to generate values for the affinity of the beads to the bound proteins (“depletion” values, 4 samples) and to generate IC50 values (6 samples) in a single experiment. Apparent dissociation constants were determined after accounting for protein depletion by the beads ([Bantscheff et al., 2011]). […]
(§3) Proteins were digested according to a modified single pot solid-phase sample preparation (SP3) protocol ([Hughes et al., 2014]). Peptides were labeled with isobaric mass tags (Thermo Fisher Scientific, Waltham, MA) using 10-plex TMT reagents, enabling relative quantification of 10 conditions in a single experiment ([Werner et al., 2014]). […]

[2] = target: T2, human protein extracts (Mixed: HEK-293/ K-562/ Placenta/ Hep G2) (Homo sapiens, UniProt Q7L576); experiment: as above; type: binding
T2 construct: endogenous in cells; host or cells: mixture of HEK-293, K-562, Hep G2 and placenta
Method: as §1, §2, §3

[3] = target: T3, human protein extracts (Mixed: HEK-293/ K-562/ Placenta/ Hep G2) (Homo sapiens, UniProt P21127); experiment: as above; type: binding
T3 construct: endogenous in cells; host or cells: mixture of HEK-293, K-562, Hep G2 and placenta
Method: as §1, §2, §3

Pf NF54 male gametes = experiment: Dual gamete formation assay, male gamete exflagellation; type: cell-based; settings: Plasmodium falciparum
Method: Pf NF54 gametocytes were generated as reported elsewhere ([Delves et al., 2016]). Briefly, static cultures of unsynchronized asexual parasites were continuously maintained as above. Parasites were cultured at 1% ring-stage parasitemias and 4% (v/v) hematocrit prior to the induction of gametocytes. To prepare gametocytes, 75% of the media was replaced daily for 14 subsequent days without adding fresh RBCs. During this process the temperature was kept strictly constant, as the rate of exflagellation is highly temperature-dependent. Between days 1 and 4 after culture induction, the asexual parasitemias increased rapidly to a peak. By day 7, as the asexual population waned, early-stage gametocytes became observable. By day 8, gametocyte maturation had progressed, and by day 14 morphologically distinguishable, mature stage V male and female gametocytes were present. […] Control reactions contained DMSO or 20 μM methylene blue (as negative and positive controls, respectively). […] After imaging, the plate was incubated at 18°C for a further 24 h to allow female gametes to maximally express Pfs25, followed by fluorescence microscopy imaging using a 10× objective. Both time lapse images of exflagellation and fluorescence images of female gametes were automatically quantified using custom scripts in ICY BioImage Analysis ([Delves et al., 2016]).

T3 sequence (P21127 whole entry): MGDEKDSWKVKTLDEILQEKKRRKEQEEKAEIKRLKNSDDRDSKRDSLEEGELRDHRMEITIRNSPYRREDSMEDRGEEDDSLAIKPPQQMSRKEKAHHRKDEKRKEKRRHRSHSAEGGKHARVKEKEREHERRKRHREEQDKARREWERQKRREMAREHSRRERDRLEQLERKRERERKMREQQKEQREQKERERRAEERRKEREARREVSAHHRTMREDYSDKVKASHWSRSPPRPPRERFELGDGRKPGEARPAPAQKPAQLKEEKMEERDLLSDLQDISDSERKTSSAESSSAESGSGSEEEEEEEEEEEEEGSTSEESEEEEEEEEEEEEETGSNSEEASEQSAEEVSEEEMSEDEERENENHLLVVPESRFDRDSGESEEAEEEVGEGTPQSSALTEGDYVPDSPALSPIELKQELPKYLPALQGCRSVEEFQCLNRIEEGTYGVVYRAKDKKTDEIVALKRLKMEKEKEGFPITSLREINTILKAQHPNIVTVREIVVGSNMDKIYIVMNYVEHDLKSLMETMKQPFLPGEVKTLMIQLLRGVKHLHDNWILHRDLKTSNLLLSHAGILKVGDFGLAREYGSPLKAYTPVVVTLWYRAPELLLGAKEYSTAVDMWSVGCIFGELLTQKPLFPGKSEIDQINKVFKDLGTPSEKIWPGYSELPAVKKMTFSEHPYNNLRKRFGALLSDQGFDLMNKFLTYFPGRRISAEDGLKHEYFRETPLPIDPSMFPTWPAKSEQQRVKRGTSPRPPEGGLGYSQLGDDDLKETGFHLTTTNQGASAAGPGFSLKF
T2 sequence (Q7L576 whole entry): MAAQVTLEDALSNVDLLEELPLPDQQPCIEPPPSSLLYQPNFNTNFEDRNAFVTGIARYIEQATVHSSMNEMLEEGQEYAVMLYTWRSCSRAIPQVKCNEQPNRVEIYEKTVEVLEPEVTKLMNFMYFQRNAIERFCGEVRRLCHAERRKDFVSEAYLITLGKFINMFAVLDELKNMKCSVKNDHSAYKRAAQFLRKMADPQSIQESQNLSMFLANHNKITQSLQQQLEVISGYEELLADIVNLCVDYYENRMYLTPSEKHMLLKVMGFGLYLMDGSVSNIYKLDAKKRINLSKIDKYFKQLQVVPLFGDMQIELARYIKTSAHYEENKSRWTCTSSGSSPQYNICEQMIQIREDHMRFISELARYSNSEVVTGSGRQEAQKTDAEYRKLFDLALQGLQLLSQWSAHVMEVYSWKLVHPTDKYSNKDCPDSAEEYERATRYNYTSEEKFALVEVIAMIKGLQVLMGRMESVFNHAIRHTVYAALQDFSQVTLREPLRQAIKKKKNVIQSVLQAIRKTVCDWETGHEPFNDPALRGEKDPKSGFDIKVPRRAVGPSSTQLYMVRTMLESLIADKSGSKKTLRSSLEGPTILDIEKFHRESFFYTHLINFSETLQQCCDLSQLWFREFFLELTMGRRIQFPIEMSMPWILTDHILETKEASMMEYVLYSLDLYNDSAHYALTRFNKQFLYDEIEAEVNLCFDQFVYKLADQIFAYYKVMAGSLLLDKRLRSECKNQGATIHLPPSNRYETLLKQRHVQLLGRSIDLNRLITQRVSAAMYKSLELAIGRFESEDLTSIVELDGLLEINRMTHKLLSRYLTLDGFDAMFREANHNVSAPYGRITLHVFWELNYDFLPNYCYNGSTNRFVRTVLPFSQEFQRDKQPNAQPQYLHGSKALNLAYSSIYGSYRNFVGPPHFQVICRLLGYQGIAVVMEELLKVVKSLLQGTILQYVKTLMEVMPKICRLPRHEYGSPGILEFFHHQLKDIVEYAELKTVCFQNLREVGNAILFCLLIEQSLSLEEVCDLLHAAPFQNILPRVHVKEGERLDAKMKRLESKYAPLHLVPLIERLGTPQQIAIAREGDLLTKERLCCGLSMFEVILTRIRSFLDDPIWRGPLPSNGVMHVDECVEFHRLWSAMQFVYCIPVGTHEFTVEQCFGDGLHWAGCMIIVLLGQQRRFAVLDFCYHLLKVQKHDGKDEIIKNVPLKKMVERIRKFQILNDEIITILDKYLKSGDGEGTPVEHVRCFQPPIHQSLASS
T1 sequence (P08240 whole entry): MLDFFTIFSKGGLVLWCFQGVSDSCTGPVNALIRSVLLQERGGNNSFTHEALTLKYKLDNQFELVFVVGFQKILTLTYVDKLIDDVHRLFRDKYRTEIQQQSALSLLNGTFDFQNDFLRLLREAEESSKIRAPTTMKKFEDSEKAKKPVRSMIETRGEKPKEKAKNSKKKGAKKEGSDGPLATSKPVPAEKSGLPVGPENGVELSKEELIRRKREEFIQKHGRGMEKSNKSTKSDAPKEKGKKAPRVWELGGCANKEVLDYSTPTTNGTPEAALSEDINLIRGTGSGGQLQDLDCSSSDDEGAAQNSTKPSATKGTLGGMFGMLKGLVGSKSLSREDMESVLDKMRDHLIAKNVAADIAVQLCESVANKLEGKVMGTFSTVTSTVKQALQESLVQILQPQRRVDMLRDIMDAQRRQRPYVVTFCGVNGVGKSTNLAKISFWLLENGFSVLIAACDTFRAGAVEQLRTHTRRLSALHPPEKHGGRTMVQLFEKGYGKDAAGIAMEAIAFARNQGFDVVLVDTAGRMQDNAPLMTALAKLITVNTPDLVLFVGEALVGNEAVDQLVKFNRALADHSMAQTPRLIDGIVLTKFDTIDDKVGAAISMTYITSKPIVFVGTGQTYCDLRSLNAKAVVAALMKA

## CC(C)(CN)c1nc(-c2ccc(Cl)c(O)c2)c(-c2ccncc2)[nH]1 [MMV030084]
[1]
  IC50: ≥ 30 µM
[2]
  IC50: ≥ 30 µM
[3]
  IC50: ≥ 30 µM
Pf NF54 male gametes; carry-over: gametogenesis induced in the presence of compound, read-out: IC50, male gamete exflagellation
  IC50: 0.141 µM
Pf NF54 male gametes; compound washed out before gamete formation, read-out: IC50, male gamete formation, wash-out
  IC50: > 10 µM
